Test system: healthy subjects
Assay: Phase 1 study: adverse events (TEAEs, MedDRA coded)
Assay type: in vivo, human
Method: A Phase 1 randomized, double-blind, placebo-controlled study to evaluate the effect of psilocybin on cognitive and emotional processing as compared to placebo in healthy volunteers was conducted. The study investigated the short-term (Day 7) and long-term (Day 28) effects of moderate (10 mg) and high doses (25 mg) of psilocybin on key domains of cognition, such as episodic memory, attention, working and spatial memory, social cognition and elements of executive function, including cognitive flexibility.
Each subject was assigned 1 treatment bottle containing 5 capsules packaged in a double-blind fashion, depending on the randomized treatment arm, the bottle contained one of the following: • a. Psilocybin 10 mg: 2×5-mg oral psilocybin capsules plus 3×placebo capsules • b. Psilocybin 25 mg: 5×5-mg oral psilocybin capsules • c. Placebo: 5×placebo capsules
Each 5-mg oral psilocybin capsules comprised 5 mg crystalline psilocybin in the form or Polymorph A, 12.5 mg of SMCC 50, 79.5 mg of SMCC 90, 1 mg sodium starch glycolate, 1 mg colloidal silicon dioxide, and 1 mg sodium stearyl fumarate
Adverse events: Throughout the course of the study, all AEs were monitored and recorded. Each AE was classified according to the following criteria: • i. […] Moderate: The AE produces some impairment of functioning, but is not hazardous to the subject's health. • iii. Severe: The AE produces significant impairment of functioning or incapacitation and is a definite hazard to the subject's health.
Visit 3 (V3): Drug Administration (Day 0): The subject was asked to eat a light breakfast at least two hours prior to coming to the clinic for study drug administration. On Day 0 (V3), the subject underwent the SSTS, had vital signs obtained, medications reviewed, AEs recorded and eligibility reviewed prior to being randomized to study drug. The study drug was administered to up to six subjects simultaneously in individual beds separated by a curtain. The subject was invited to put on eyeshades and headphones, lie down and listen to calming music for the rest of the session (six hours). The subject was supported 1:1 with a chaperone and supervised by the study psychiatrist and lead therapist.
During administration of psilocybin, each subject received one-on-one support from a trained assisting therapist and each dosing session was supervised by a study psychiatrist and a lead therapist. The study drug was administered simultaneously to up to six participants as a single 5-capsule oral dose (10 mg psilocybin: 2×5-mg psilocybin capsules plus 3×placebo capsules; 25 mg psilocybin: 5×5-mg psilocybin capsules; placebo: 5×placebo capsules). Twenty-five dosing sessions were completed, with up to six participants dosed simultaneously per session. Each session lasted approximately 6 to 8 hours with subjects encouraged to relax and engage in introspection for the duration. After the acute effects of the study drug had subsided, subjects were discharged.

CN(C)CCc1c[nH]c2cccc(OP(=O)(O)O)c12 [Psilocybin, psilocybin]
Illusion, Events (25 mg oral): 26
Illusion, N (%) (25 mg oral): 18 (60.0)
Illusion, worst severity Mild, Events (25 mg oral): 4
Illusion, worst severity Mild, N (%) (25 mg oral): 3 (10.0)
Illusion, worst severity Moderate, Events (25 mg oral): 12
Illusion, worst severity Moderate, N (%) (25 mg oral): 10 (33.3)
Illusion, worst severity Severe, Events (25 mg oral): 7
Illusion, worst severity Severe, N (%) (25 mg oral): 5 (16.7)
Infections and infestations, Events (25 mg oral): 4
Infections and infestations, N (%) (25 mg oral): 4 (13.3)
Infections and infestations, worst severity Mild, Events (25 mg oral): 4
Infections and infestations, worst severity Mild, N (%) (25 mg oral): 4 (13.3)
Infections and infestations, worst severity Moderate, Events (25 mg oral): 0
Infections and infestations, worst severity Moderate, N (%) (25 mg oral): 0
Infections and infestations, worst severity Severe, Events (25 mg oral): 0
Infections and infestations, worst severity Severe, N (%) (25 mg oral): 0
Investigations, Events (25 mg oral): 1
Investigations, N (%) (25 mg oral): 1 (3.3)
Investigations, worst severity Mild, Events (25 mg oral): 1
Investigations, worst severity Mild, N (%) (25 mg oral): 1 (3.3)
Investigations, worst severity Moderate, Events (25 mg oral): 0
Investigations, worst severity Moderate, N (%) (25 mg oral): 0
Investigations, worst severity Severe, Events (25 mg oral): 0
Investigations, worst severity Severe, N (%) (25 mg oral): 0
Memory impairment, Events (25 mg oral): 0
Memory impairment, N (%) (25 mg oral): 0
Mental fatigue, Events (25 mg oral): 3
Mental fatigue, N (%) (25 mg oral): 3 (10.0)
Mood altered, Events (25 mg oral): 25
Mood altered, N (%) (25 mg oral): 15 (50.0)
Mood altered, worst severity Mild, Events (25 mg oral): 3
Mood altered, worst severity Mild, N (%) (25 mg oral): 2 (6.7)
Mood altered, worst severity Moderate, Events (25 mg oral): 7
Mood altered, worst severity Moderate, N (%) (25 mg oral): 6 (20.0)
Mood altered, worst severity Severe, Events (25 mg oral): 9
Mood altered, worst severity Severe, N (%) (25 mg oral): 7 (23.3)
Musculoskeletal and connective tissue disorders, Events (25 mg oral): 4
Musculoskeletal and connective tissue disorders, N (%) (25 mg oral): 3 (10.0)
Musculoskeletal and connective tissue disorders, worst severity Mild, Events (25 mg oral): 3
Musculoskeletal and connective tissue disorders, worst severity Mild, N (%) (25 mg oral): 2 (6.7)
Musculoskeletal and connective tissue disorders, worst severity Moderate, Events (25 mg oral): 1
Musculoskeletal and connective tissue disorders, worst severity Moderate, N (%) (25 mg oral): 1 (3.3)
Musculoskeletal and connective tissue disorders, worst severity Severe, Events (25 mg oral): 0
Musculoskeletal and connective tissue disorders, worst severity Severe, N (%) (25 mg oral): 0
Nausea, Events (25 mg oral): 3
Nausea, N (%) (25 mg oral): 3 (10.0)
Nervous system disorders, Events (25 mg oral): 43
Nervous system disorders, N (%) (25 mg oral): 25 (83.3)
Nervous system disorders, worst severity Mild, Events (25 mg oral): 24
Nervous system disorders, worst severity Mild, N (%) (25 mg oral): 16 (53.3)
Nervous system disorders, worst severity Moderate, Events (25 mg oral): 10
Nervous system disorders, worst severity Moderate, N (%) (25 mg oral): 8 (26.7)
Nervous system disorders, worst severity Severe, Events (25 mg oral): 1
Nervous system disorders, worst severity Severe, N (%) (25 mg oral): 1 (3.3)
Paraesthesia, Events (25 mg oral): 4
Paraesthesia, N (%) (25 mg oral): 4 (13.3)
Paraesthesia, worst severity Mild, Events (25 mg oral): 3
Paraesthesia, worst severity Mild, N (%) (25 mg oral): 3 (10.0)
Paraesthesia, worst severity Moderate, Events (25 mg oral): 1
Paraesthesia, worst severity Moderate, N (%) (25 mg oral): 1 (3.3)
Paraesthesia, worst severity Severe, Events (25 mg oral): 0
Paraesthesia, worst severity Severe, N (%) (25 mg oral): 0
Psychiatric disorders, Events (25 mg oral): 135
Psychiatric disorders, N (%) (25 mg oral): 29 (96.7)
Psychiatric disorders, worst severity Mild, Events (25 mg oral): 5
Psychiatric disorders, worst severity Mild, N (%) (25 mg oral): 4 (13.3)
Psychiatric disorders, worst severity Moderate, Events (25 mg oral): 45
Psychiatric disorders, worst severity Moderate, N (%) (25 mg oral): 16 (53.3)
Psychiatric disorders, worst severity Severe, Events (25 mg oral): 27
Psychiatric disorders, worst severity Severe, N (%) (25 mg oral): 9 (30.0)
Psychomotor skills impaired, Events (25 mg oral): 0
Psychomotor skills impaired, N (%) (25 mg oral): 0
Respiratory, thoracic and mediastinal disorders, Events (25 mg oral): 3
Respiratory, thoracic and mediastinal disorders, N (%) (25 mg oral): 3 (10.0)
Selected TEAE: Nervous system disorders, Events (25 mg oral): 0
Selected TEAE: Nervous system disorders, N (%) (25 mg oral): 0
Selected TEAE: Psychiatric disorders, Events (25 mg oral): 106
Selected TEAE: Psychiatric disorders, N (%) (25 mg oral): 27 (90.0)
Somatic hallucination, Events (25 mg oral): 6
Somatic hallucination, N (%) (25 mg oral): 5 (16.7)
Somatic hallucination, worst severity Mild, Events (25 mg oral): 2
Somatic hallucination, worst severity Mild, N (%) (25 mg oral): 2 (6.7)
Somatic hallucination, worst severity Moderate, Events (25 mg oral): 2
Somatic hallucination, worst severity Moderate, N (%) (25 mg oral): 2 (6.7)
Somatic hallucination, worst severity Severe, Events (25 mg oral): 2
Somatic hallucination, worst severity Severe, N (%) (25 mg oral): 1 (3.3)
Substance-induced psychotic disorder, Events (25 mg oral): 1
Substance-induced psychotic disorder, N (%) (25 mg oral): 1 (3.3)
Tension headache, Events (25 mg oral): 6
Tension headache, N (%) (25 mg oral): 6 (20.0)
Tension headache, worst severity Mild, Events (25 mg oral): 4
Tension headache, worst severity Mild, N (%) (25 mg oral): 4 (13.3)
Tension headache, worst severity Moderate, Events (25 mg oral): 2
Tension headache, worst severity Moderate, N (%) (25 mg oral): 2 (6.7)
Tension headache, worst severity Severe, Events (25 mg oral): 0
Tension headache, worst severity Severe, N (%) (25 mg oral): 0
Time perception altered, Events (25 mg oral): 6
Time perception altered, N (%) (25 mg oral): 6 (20.0)
Time perception altered, worst severity Mild, Events (25 mg oral): 2
Time perception altered, worst severity Mild, N (%) (25 mg oral): 2 (6.7)
Time perception altered, worst severity Moderate, Events (25 mg oral): 4
Time perception altered, worst severity Moderate, N (%) (25 mg oral): 4 (13.3)
Time perception altered, worst severity Severe, Events (25 mg oral): 0
Time perception altered, worst severity Severe, N (%) (25 mg oral): 0
Adverse events reported by % of subjects (25 mg oral, 12-week study): 96.7%
Reported 'Mood altered' events: Being less judgmental (number) (25 mg psilocybin (n = 30)): 0
Reported 'Mood altered' events: Calm (number) (25 mg psilocybin (n = 30)): 0
Reported 'Mood altered' events: Clarity of thought (number) (25 mg psilocybin (n = 30)): 1
Reported 'Mood altered' events: Contemplative state (number) (25 mg psilocybin (n = 30)): 1
Reported 'Mood altered' events: Feeling more moody/sensitive (number) (25 mg psilocybin (n = 30)): 0
Reported 'Mood altered' events: Feeling of adrenaline release (number) (25 mg psilocybin (n = 30)): 0
Reported 'Mood altered' events: Feeling rested (number) (25 mg psilocybin (n = 30)): 0
Reported 'Mood altered' events: Increased compassion (number) (25 mg psilocybin (n = 30)): 1
Reported 'Mood altered' events: Increased creativity (number) (25 mg psilocybin (n = 30)): 1
Reported 'Mood altered' events: Increased empathy (number) (25 mg psilocybin (n = 30)): 2
Reported 'Mood altered' events: Increased sense of connectedness (number) (25 mg psilocybin (n = 30)): 1
Reported 'Mood altered' events: Increased wit (number) (25 mg psilocybin (n = 30)): 0
Reported 'Mood altered' events: Introspection (number) (25 mg psilocybin (n = 30)): 8
Reported 'Mood altered' events: Laughter (number) (25 mg psilocybin (n = 30)): 1
Reported 'Mood altered' events: More socially upbeat (number) (25 mg psilocybin (n = 30)): 1
Reported 'Mood altered' events: Negative mood (number) (25 mg psilocybin (n = 30)): 0
Reported 'Mood altered' events: Reflections (number) (25 mg psilocybin (n = 30)): 4
Reported 'Mood altered' events: Saw themselves from a new perspective (number) (25 mg psilocybin (n = 30)): 1
Reported 'Mood altered' events: Sense of oneness (number) (25 mg psilocybin (n = 30)): 2
Reported 'Mood altered' events: Sense of openness (number) (25 mg psilocybin (n = 30)): 0
Reported 'Mood altered' events: Unusual appreciation of music (number) (25 mg psilocybin (n = 30)): 0
Adverse events that appeared and resolved on day 0 (day of dosing) (all adverse events, all arms): 67%
'mood altered' AEs positive or neutral in nature (all arms): 96%
Median duration of adverse events (all treatment arms, 12-week trial): one
Incidence of Illusion, Hallucination (visual), Mood altered, Headache, Fatigue and Euphoric mood compared to placebo (both 10 and 25 mg): higher
Adverse events likely to be psychedelic in nature resolved on the day of onset or within a day of onset (human, in vivo, oral, 12 weeks): 92%
